Reference: patent publication US12465602B2, “Use of an opioid molecule for treating dry eye and eyes suffering from allergies” (H4 ORPHAN PHARMA, priority 2019, dated 2025)
Read-outs that look alike come from different tables or passages of the source.

Assays:
non-mutated CFTR = molecular target: T1, non-mutated CFTR (Homo sapiens, UniProt P13569); test: Ussing chamber short-circuit current on lacrimal gland epithelial cells expressing non-mutated CFTR; format: cell-based
T1 construct: endogenous in cells; host or cells: human glandular (lacrimal gland) epithelial cells, polarised on Snapwell filters
Excerpt: To study this action on the modulation of CFTR, the inventors have used the Ussing chamber method, invented by the Danish Hans H. Ussing at the end of the 1950s. This technique allows studying ionic exchanges through an epithelium, as they allow maintaining the tissue of interest in survival for a few hours under controlled conditions of temperature and medium. The positioning of the tissue between two half-chambers allows defining an apical compartment (corresponding to the lumen of the organ) and a basolateral compartment (corresponding to the blood compartment) and studying the exchanges between these two compartments via the tissue.
This technique is commonly used and it is particularly well-suited for a pharmacological approach of ionic transports and to search for molecules of therapeutic interest in the context of ionic secretions from epithelial cells. It consists in measuring the transepithelial current (called short-circuit and denoted Ise). Ise is expressed in amperes relative to the unit surface area of the epithelium (Ise in μA/cm2). The cells are cultured on a porous filter for 10 to 15 days at the liquid-liquid then air-liquid interface in order to mimic conditions close to in vivo. The transepithelial resistance is regularly measured during the culture. The higher this resistance (several hundred ohms), the more the epithelial tissue is contiguous, polarised and therefore tight. At the Air (apical side)—Liquid (basolateral side) interface, the epithelial cells polarise and form a tight mat that can be studied with the Ussing chamber technique. We have used a system with 6 vats from Physiologie Instrument@ enabling 6 experiments in parallel.
The inventors have prepared a 100 μM stock solution in DMSO.

basophils = test: Basophil activation test (Flow CAST kit), CD63 expression by flow cytometry after anti-FcεRI stimulation; format: cell-based, human; settings: noscapine 10 μM, whole blood, FIG. 9
Excerpt: These two cells intervene in the IgE-dependent allergic reaction; they express the high-affinity IgE receptor. Nevertheless, the mediators released by these cells during this activation are different for some of them. Moreover, basophils and especially mast cells intervene in innate immunity. Thus, basophils and mast cells have many characteristics in common and more particularly, the secretion of IL4 and IL13 which are known to induce the stimulation of collagen synthesis and the proliferation of fibroblasts responsible for fibrosis. Fibrosis can affect the Meibomian glands in dry eye and allergic eye. […]
It is designed for the in vitro diagnosis of the expression of the CD63 marker as a surface marker of activated basophils. The test is carried out on whole blood; flow cytometry allows quantifying the expression of CD63 at the surface of activated basophils. […]
This granularity may be due to irregularities inside or at the surface of the cells or to the density of the organelles that compose it (acess.ens-lyon.fr). Afterwards, fluorescence markers allow better characterising the different cell subpopulations (these markers are coupled with the differentiation clusters). […] The latter has been analysed in order to observe the expected results in the absence of stimulation and therefore of degranulation. […]

[1] = cited from earlier work

T1 sequence (P13569 whole entry, change not shown): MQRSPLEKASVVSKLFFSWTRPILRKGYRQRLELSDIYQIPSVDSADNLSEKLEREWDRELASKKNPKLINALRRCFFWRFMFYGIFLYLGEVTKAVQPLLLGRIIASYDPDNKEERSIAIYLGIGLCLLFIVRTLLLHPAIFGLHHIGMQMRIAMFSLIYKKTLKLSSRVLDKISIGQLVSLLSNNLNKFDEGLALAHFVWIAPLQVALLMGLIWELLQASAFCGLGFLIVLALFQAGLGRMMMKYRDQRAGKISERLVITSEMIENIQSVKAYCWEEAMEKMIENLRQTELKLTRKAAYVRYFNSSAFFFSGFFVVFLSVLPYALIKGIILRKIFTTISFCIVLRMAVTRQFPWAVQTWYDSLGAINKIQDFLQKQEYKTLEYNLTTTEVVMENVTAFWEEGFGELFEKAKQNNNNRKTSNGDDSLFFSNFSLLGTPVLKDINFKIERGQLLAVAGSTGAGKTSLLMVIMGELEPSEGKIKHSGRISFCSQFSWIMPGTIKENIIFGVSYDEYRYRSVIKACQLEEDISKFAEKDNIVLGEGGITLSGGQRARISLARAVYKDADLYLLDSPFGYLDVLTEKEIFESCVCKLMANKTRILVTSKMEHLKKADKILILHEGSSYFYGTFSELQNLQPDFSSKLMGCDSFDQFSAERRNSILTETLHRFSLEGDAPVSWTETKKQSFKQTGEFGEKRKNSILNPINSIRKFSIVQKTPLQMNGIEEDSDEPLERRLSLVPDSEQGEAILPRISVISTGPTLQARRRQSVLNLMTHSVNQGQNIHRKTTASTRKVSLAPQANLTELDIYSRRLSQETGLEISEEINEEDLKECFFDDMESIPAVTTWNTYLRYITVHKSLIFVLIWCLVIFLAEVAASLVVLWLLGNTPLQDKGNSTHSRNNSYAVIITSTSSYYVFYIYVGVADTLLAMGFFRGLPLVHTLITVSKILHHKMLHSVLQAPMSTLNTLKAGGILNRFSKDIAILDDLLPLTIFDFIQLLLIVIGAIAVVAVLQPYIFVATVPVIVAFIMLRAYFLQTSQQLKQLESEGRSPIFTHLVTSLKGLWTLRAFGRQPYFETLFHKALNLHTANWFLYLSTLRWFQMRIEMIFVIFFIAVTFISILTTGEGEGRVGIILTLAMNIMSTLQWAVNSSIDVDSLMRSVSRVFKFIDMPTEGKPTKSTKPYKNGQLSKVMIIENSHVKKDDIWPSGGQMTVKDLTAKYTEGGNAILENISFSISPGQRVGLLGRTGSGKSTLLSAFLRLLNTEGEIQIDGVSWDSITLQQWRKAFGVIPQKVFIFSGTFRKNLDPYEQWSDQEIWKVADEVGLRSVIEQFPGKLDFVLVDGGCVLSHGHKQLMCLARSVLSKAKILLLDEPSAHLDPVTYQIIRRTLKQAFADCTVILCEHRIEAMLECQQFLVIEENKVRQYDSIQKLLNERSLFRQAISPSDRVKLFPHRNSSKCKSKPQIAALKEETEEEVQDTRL

Structure (SMILES)	effect of Inh172 on cellular potential (non-mutated CFTR; Inh172 10 μM, first series (apical side))	effect of Inh172 on cellular potential, second series (non-mutated CFTR; Inh172 10 μM, lacrimal gland epithelial cells)	short-circuit current differential after addition of noscapine, apical side (non-mutated CFTR; 10 μM noscapine, non-mutated epithelial cells, apical side, switches from 16)	short-circuit current differential after addition of noscapine, second series (non-mutated CFTR; 10 μM noscapine, non-mutated lacrimal gland epithelial cells, printed apical side, switches from 6.5)	EC50 (non-mutated CFTR; apical pole, FIG. 2, read-out: EC50 activity for the apical pole) [µM]	EC50 (non-mutated CFTR; basal pole, FIG. 3, read-out: EC50 for the basal pole) [µM]	inhibition of basophil degranulation caused by anti-FcεRI antibody (CD63+ CCR3+) (basophils)	solubility in organic solvents ([1]; benzene and acetone)	solubility in water ([1]; water)
O=C(O)c1ccc(C=C2SC(=S)N(c3cccc(C(F)(F)F)c3)C2=O)cc1 [Inh172]	completely blocks the cellular potential	completely blocks the cellular potential	–	–	–	–	–	–	–
COc1ccc2c(c1OC)C(=O)O[C@@H]2[C@H]1c2c(cc3c(c2OC)OCO3)CCN1C [noscapine, (3S)-6,7-dimethoxy-3-[(5R)-4-methoxy-6-methyl-7,8-dihydro-5H-[1,3]dioxolo[4,5-g]isoquinolin-5-yl]-3H-2-benzofuran-1-one]	–	–	more than 20 μA/cm2	more than 7.5 μA/cm2	3.42	4.87	blocks the activation of basophil degranulation	soluble in benzene and acetone	Insoluble in water
